In general, MIC refers to the lowest concentration found to suppress growth. For orientation: MBC means the lowest tested concentration that kills the bacteria rather than only halting them.

Consider 4 compounds from paper PMC11372839, “Unraveling the Potential of Vitamin B3-Derived Salts with a Salicylate Anion as Dermal Active Agents for Acne Treatment” (Molecular Pharmaceutics, 2024).

Values after ≈ are worked out from the molar mass of the structure shown. Values joined by “and” are separate entries in the source; they are usually repeats but may differ in a detail not shown here. Identical values can stand only once. Like-named read-outs stand apart in the source and are kept apart here. A value given as a limit tells only on which side of the number the result lay.

The test system of data set [1] is Artemia franciscana. As to the kind of experiment: Ecotoxicity toward aquatic life, Artoxkit M immobilization test. It counts as in vivo. To be noted: for EC50: Artemia franciscana; for Class: acute toxicity rating scale by Fish and Wildlife Service. The procedure:
To determine the EC50 parameter for compounds, tests were carried out on marine crustaceans—Artemia franciscana (A. franciscana). The methodology proposed in the Artoxkit M test (MicroBioTests Inc., Gent, Belgium) was developed according to the ASTM E1440-91 standard.
The hatching process was started first. For this purpose, 50 mg of cysts was transferred to the Petri dishes attached to the Artoxkit M set, which were then immersed in 10 mL of artificial seawater with a salinity of 35‰ (a medium for the development of the tested organisms, as well as a solvent for preparing solutions of the tested compounds) and placed at a temperature of 25 °C, with access to light (6000–10,000 lux) for 30 h. Then, 2 h before placing them on the Artoxkit M plates, 20 mg of spirulina was added to cultured artemias. In addition, 1 h before the analysis, the used seawater was oxygenated by passing a stream of air through the solution. To each of the four cells in a given row of a plate from the Artoxkit M kit, 1 mL of solution at the specified concentrations (or the appropriate medium in the case of a control) were introduced. In the first column of cells (a control sample and five selected concentrations), no less than 30 artemias were placed from previously prepared Petri dishes. Then, from the first cell in the first column, artemias were collected at the selected concentration and added to the next three cells in the selected row, 10 organisms per cell. After the organisms were introduced into the appropriate cells, the plates were covered with Parafilm and then closed with a plastic cap. The prepared kit was incubated at 25 °C and protected from light. Number of motionless organisms were counted after 24 and 48 h. Immobilization was then calculated (eq 1) in relation to the number of organisms at the start of the test: [drawing 1] 1
Next, the dependence between the effect and concentration of the tested compounds was plotted, and on this basis, an EC50 value was determined.

A short description of data set [2]: Solubility in PBS. To be noted: for Solubility in PBS, Class: Pharmacopeia solubility class, PBS pH 7.4, 25 °C. The procedure: The solubility in PBS solution was determined by placing 1 g (±0.0001) of tested compound in a round-bottom flask and adding specific parts of the PBS solution in portions until full dissolution. The samples were vigorously stirred for at least 5 min before the addition of the next portion of PBS, and the systems were thermostated at 25 °C. Three repetitions of the measurement were performed for each of the compounds.
Most studies on the solubility of novel APIs are carried out with pure water, aqueous PBS solutions were much more preferred due to their higher similarity to intra- and intercellular media in epidermis, while envisaging their use in transdermal delivery and skin care applications.[60] […] The collected data are presented in Figure 8 (as well as in Table S6 in the Supporting Information).

The nature of data set [3]: Contact angle of aqueous solutions, sessile drop method on paraffin. The note with it: aqueous solution, 25 °C. It counts as physicochemical. The procedure:
The contact angle (CA) measurements were carried out using a DSA100S analyzer (Krüss, Germany, accuracy ±0.1°), at 25 °C. The determination of the contact angle was based on the sessile drop method, i.e., drops of the analyzed solution were deposited on a solid surface (paraffin). The images of the drops were taken with a CCD camera, digitized, and evaluated using Young–Laplace fitting. The CA was determined as the slope of the tangent line at the contact point between the 3 phases (solution, paraffin surface, and air).
In the case of seborrheic skin, which occurs among many people affected by acne, the epidermis is covered by a hydrophobic lipid layer, which impedes the penetration of active substances, especially those that are well soluble in water. In addition, ensuring proper drug absorption through the skin can also reduce the risk of side effects and increase the effectiveness of therapy.[72] The addition of surfactants, which improve the wettability of hydrophobic surfaces, can be a solution to this problem.[73],[74] […] Wettability analyses of aqueous solutions of the new APIs were carried out on paraffin, whose hydrophobicity is similar to that of the human skin.[75] Experiments were performed at concentrations corresponding to common NA and SAL contents in commercial formulations (0.25–1.00%).[67],[76],[77] Due to low solubilities of 5–7, tests for these salts were performed at concentrations of 0.25, 0.03, and 0.01%, respectively (please see Figure S43 in the Supporting Information).

Data set [4] has as its system Staphylococcus aureus. As to the kind of experiment: MIC and MBC determination, microdilution method. The note with it: for MIC: 18 h, read-out: MIC, S. aureus; for MBC: read-out: MBC, S. aureus. Type of data set: cell-based. The procedure: (§1) The antimicrobial activities of the compounds were tested against clinical strains of an aerobic Gram-negative bacterium—Pseudomonas aeruginosa (P. aeruginosa), facultative anaerobic Gram-positive bacteria—Staphylococcus aureus (S. aureus) and Staphylococcus epidermidis (S. epidermidis), anaerobic Gram-positive bacterium—Cutibacterium acnes (C. acnes), and yeast-like fungus—Candida albicans (C. albicans).
(§2) Aerobic and facultative anaerobic bacteria cultures were grown in Brain Heart Infusion broth (BHI, bioMerieux, France) at 35 °C ± 1 °C for 18 h, C. acnes cultures were grown in thioglycolate broth with resazurin (TGB, bioMerieux, France) at 35 ± 1 °C for 48 h, and yeast cultures were grown in Sabouraud dextrose broth (SDB, Merck, Germany) at 35 ± 1 °C for 24 h. After incubation, each culture was diluted in a suitable liquid medium: P. aeruginosa, S. aureus, and S. epidermidis—Mueller–Hinton broth (MHB; Oxoid, UK); C. acnes—TGB; and C. albicans—SDB, to obtain a final suspension containing about 10^6 CFU/mL.
(§3) The microdilution method was employed to determine the compounds’ MIC (Minimal Inhibitory Concentration) and MBC/MFC (Minimal Bactericidal Concentration/Minimal Fungicidal Concentration) against the tested bacterial and fungal strains.
(§4) The compounds were serially diluted (2-fold) in the respective media (P. aeruginosa, S. aureus, and S. epidermidis—MHB, C. acnes—TGB, and C. albicans—SDB in 96-well plates), and the microbial suspensions were added. The compounds were tested in the final concentration range of 4 096 to 0.125 μg/mL, and the final microbial inoculum was approximately 5 ×10^5 CFU/mL. The tests were incubated at 35 °C ± 1 °C for 18 h (P. aeruginosa, S. aureus, and S. epidermidis) or 24 h (C. albicans) or 48 h (C. acnes). C. acnes was incubated in an anaerobic atmosphere using a GENbag anaer (bioMerieux, France). Media (without the strains) added to the different concentrations of tested compounds and media inoculated with microbial suspension were used as a negative control and growth control, respectively.
(§5) The MIC was defined as the lowest concentration at which visible growth was inhibited. MBC and MFC concentrations were determined as an extension of the MIC test. […] The plates were incubated at 35 ± 1 °C for 18–72 h. C. acnes was incubated in an anaerobic atmosphere. The MBC/MFC was defined as the lowest concentration at which no growth was observed. All tests were performed in duplicate.
In general terms: Broth dilution looks for growth in wells or tubes with falling amounts of substance.

In data set [5] the test system is Staphylococcus epidermidis. As to the kind of experiment: MIC and MBC determination, microdilution method. The note with it: for MIC: 18 h, read-out: MIC, S. epidermidis; for MBC: read-out: MBC, S. epidermidis. It counts as cell-based. The procedure:
as §1, §2, §3, §4, §5

Setting [6] is: immobilization, motionless organisms counted after 24 and 48 h, 25 °C, read-out: EC50.
Setting [7] is: toxicity range of EC50, read-out: Range.
Setting [8] is: volume of PBS (pH 7.4) to dissolve 1 g, 25 °C.
The mark [9] stands for this setting: clinical strain, tested 4 096 to 0.125 μg/mL, b = out of range.

As for `CCCCCCCC[n+]1cccc(C(N)=O)c1.O=C([O-])c1ccccc1O` [compound 4], the figures for the EC50 in data set [1] (setting [6]) and in data set [1] (setting [7]) were 360 µg/mL and 100 to 1000 µg/mL, respectively. Besides, the Class entry in data set [1] is recorded as “Practically Nontoxic (100-1000)”. Besides, the “Solubility in PBS, Class” value in data set [2] was “Soluble (10-30)”. Moreover, in data set [2] (setting [8]), the “Solubility in PBS, PBS [ml]” value was in the range of 10 to 30 mL. Further, the Contact angle is 94.1 ° and 94 ° in data set [3] (concentration 0.25%); 79.0 ° in data set [3] (concentration 0.50%); 61.2 ° and 61 ° in data set [3] (concentration 1.00%). The results for the minimum inhibitory concentration (MIC) in data set [4] and in data set [5] were 1020 µg/mL and 2050 µg/mL, respectively.

On to `O=C(O)c1ccccc1O` [SAL, salicylic acid, reference compound], for which the EC50 in data set [1] (setting [6]) was 300 µg/mL (≈ 2.17 mM); in data set [1] (setting [7]) it was 100 to 1000 µg/mL (≈ 0.724 to 7.24 mM). The Class entry in data set [1] was “Practically Nontoxic (100-1000)”. Besides, the “Solubility in PBS, PBS [ml]” value in data set [2] (pH 7.4) lay within 100 to 1000 mL. The compound further displayed a Contact angle in data set [3] (concentration 0.25%) of 104.9 °. For the same compound, the MIC in data set [4] (setting [9]) and in data set [5] (setting [9]) was 1020 µg/mL (≈ 7.41 mM) in each case. The MBC in data set [4] (setting [9]) and in data set [5] (setting [9]) was 1020 µg/mL (≈ 7.41 mM) in each case.

Regarding `CCCCCC[n+]1cccc(C(N)=O)c1.O=C([O-])c1ccccc1O` [compound 3], the EC50 in data set [1] (setting [6]) is 692 µg/mL; in data set [1] (setting [7]), 100 to 1000 µg/mL. Also, the Class result in data set [1] is “Practically Nontoxic (100-1000)”. For the same compound, the “Solubility in PBS, Class” value in data set [2] is given as “Very Soluble (<1)”. Moreover, the “Solubility in PBS, PBS [ml]” value in data set [2] (setting [8]) is under 1 mL. The Contact angle in data set [3] (concentration 0.25%) is on record as 107.0 °; in data set [3] (concentration 0.50%), 103.4 °; in data set [3] (concentration 1.00%), 98.51 °. Further, the MIC in data set [4] came to 2050 µg/mL; in data set [5], 4100 µg/mL.

Regarding `CCCCCCCCCC[n+]1cccc(C(N)=O)c1.O=C([O-])c1ccccc1O` [compound 5], the results for the EC50 in data set [1] (setting [6]) and in data set [1] (setting [7]) were 138 µg/mL and 100 to 1000 µg/mL, respectively. The Class entry in data set [1] was “Practically Nontoxic (100-1000)”. For the same compound, in data set [2], the “Solubility in PBS, Class” value was “Slightly Soluble (100-1000)”. Also, the “Solubility in PBS, PBS [ml]” value in data set [2] (setting [8]) fell in the range of 100 to 1000 mL. This compound also had a Contact angle in data set [3] (concentration 0.25%) of 50.7 °. Besides, the MIC in data set [4] and in data set [5] was 256 µg/mL throughout. The minimum bactericidal concentration (MBC) in data set [4] and in data set [5] was 256 µg/mL in each case.
